Test results published in article PMC9516332 (Frontiers in Oncology, 2022).
Read-outs that look alike come from different tables or passages of the source.

Legend:
134 cancer cell lines = assay: Cell viability assay (ATPlite, 72 hours), IC50 on cancer cell line panel
AP-1060 (ETV6-NTRK3) = assay: Cell viability assay; details: read-out: IC50 in cell proliferation assay

COc1cc(N2CCC(N3CCN(C)CC3)CC2)ccc1Nc1ncc(Cl)c(Nc2ccccc2P(C)(C)=O)n1 [brigatinib]
IC50 (134 cancer cell lines; HEC-6, read-out: IC50 in cell proliferation assay): 5210 nM | IC50 (134 cancer cell lines; Homo sapiens, 769-P, read-out: IC50 in cell proliferation assay): 1910 nM | IC50 (134 cancer cell lines; Homo sapiens, 786-0, read-out: IC50 in cell proliferation assay): 2070 nM | IC50 (134 cancer cell lines; Homo sapiens, A 172, read-out: IC50 in cell proliferation assay): 888 nM | IC50 (134 cancer cell lines; Homo sapiens, A204, read-out: IC50 in cell proliferation assay): 1270 nM | IC50 (134 cancer cell lines; Homo sapiens, A498, read-out: IC50 in cell proliferation assay): 1860 nM | IC50 (134 cancer cell lines; Homo sapiens, A549, read-out: IC50 in cell proliferation assay): 893 nM | IC50 (134 cancer cell lines; Homo sapiens, A704, read-out: IC50 in cell proliferation assay): 3590 nM | IC50 (134 cancer cell lines; Homo sapiens, A-375, read-out: IC50 in cell proliferation assay): 719 nM | IC50 (134 cancer cell lines; Homo sapiens, A-427, read-out: IC50 in cell proliferation assay): 448 nM | IC50 (134 cancer cell lines; Homo sapiens, ACHN, read-out: IC50 in cell proliferation assay): 894 nM | IC50 (134 cancer cell lines; Homo sapiens, AN3-CA, read-out: IC50 in cell proliferation assay): 1860 nM | IC50 (134 cancer cell lines; Homo sapiens, ASPC1, read-out: IC50 in cell proliferation assay): 809 nM | IC50 (134 cancer cell lines; Homo sapiens, AU565, read-out: IC50 in cell proliferation assay): 2580 nM | IC50 (134 cancer cell lines; Homo sapiens, BT-20, read-out: IC50 in cell proliferation assay): 4210 nM | IC50 (134 cancer cell lines; Homo sapiens, BT-474, read-out: IC50 in cell proliferation assay): 7880 nM | IC50 (134 cancer cell lines; Homo sapiens, BT-549, read-out: IC50 in cell proliferation assay): 3010 nM | IC50 (134 cancer cell lines; Homo sapiens, BXPC-3, read-out: IC50 in cell proliferation assay): 619 nM | IC50 (134 cancer cell lines; Homo sapiens, C-33-A, read-out: IC50 in cell proliferation assay): 527 nM | IC50 (134 cancer cell lines; Homo sapiens, CAL-27, read-out: IC50 in cell proliferation assay): 673 nM | IC50 (134 cancer cell lines; Homo sapiens, CCF-STTG1, read-out: IC50 in cell proliferation assay): 3440 nM | IC50 (134 cancer cell lines; Homo sapiens, CCRF-CEM, read-out: IC50 in cell proliferation assay): 3600 nM | IC50 (134 cancer cell lines; Homo sapiens, COLO 205, read-out: IC50 in cell proliferation assay): 998 nM | IC50 (134 cancer cell lines; Homo sapiens, COLO-829, read-out: IC50 in cell proliferation assay): 2560 nM | IC50 (134 cancer cell lines; Homo sapiens, DLD-1, read-out: IC50 in cell proliferation assay): 4720 nM | IC50 (134 cancer cell lines; Homo sapiens, DU-145, read-out: IC50 in cell proliferation assay): 667 nM | IC50 (134 cancer cell lines; Homo sapiens, DU-4475, read-out: IC50 in cell proliferation assay): 1790 nM | IC50 (134 cancer cell lines; Homo sapiens, Daoy, read-out: IC50 in cell proliferation assay): 3070 nM | IC50 (134 cancer cell lines; Homo sapiens, DoTc2-4510, read-out: IC50 in cell proliferation assay): 270 nM | IC50 (134 cancer cell lines; Homo sapiens, EOL1, read-out: IC50 in cell proliferation assay): 50 nM | IC50 (134 cancer cell lines; Homo sapiens, FaDu, read-out: IC50 in cell proliferation assay): 971 nM | IC50 (134 cancer cell lines; Homo sapiens, G-361, read-out: IC50 in cell proliferation assay): 9280 nM | IC50 (134 cancer cell lines; Homo sapiens, HCC827, read-out: IC50 in cell proliferation assay): 129 nM | IC50 (134 cancer cell lines; Homo sapiens, HCC4006, read-out: IC50 in cell proliferation assay): 152 nM | IC50 (134 cancer cell lines; Homo sapiens, HCT-15, read-out: IC50 in cell proliferation assay): 3770 nM | IC50 (134 cancer cell lines; Homo sapiens, HCT-116, read-out: IC50 in cell proliferation assay): 1690 nM | IC50 (134 cancer cell lines; Homo sapiens, HEC-1, read-out: IC50 in cell proliferation assay): 1810 nM | IC50 (134 cancer cell lines; Homo sapiens, HEC-1B, read-out: IC50 in cell proliferation assay): 367 nM | IC50 (134 cancer cell lines; Homo sapiens, HL-60, read-out: IC50 in cell proliferation assay): 1110 nM | IC50 (134 cancer cell lines; Homo sapiens, HT, read-out: IC50 in cell proliferation assay): 4540 nM | IC50 (134 cancer cell lines; Homo sapiens, HT-1080, read-out: IC50 in cell proliferation assay): 1660 nM | IC50 (134 cancer cell lines; Homo sapiens, Hs746T, read-out: IC50 in cell proliferation assay): 2140 nM | IC50 (134 cancer cell lines; Homo sapiens, Hs-578T, read-out: IC50 in cell proliferation assay): 1390 nM | IC50 (134 cancer cell lines; Homo sapiens, HuTu80, read-out: IC50 in cell proliferation assay): 451 nM | IC50 (134 cancer cell lines; Homo sapiens, J82, read-out: IC50 in cell proliferation assay): 1880 nM | IC50 (134 cancer cell lines; Homo sapiens, Jurkat E6.1, read-out: IC50 in cell proliferation assay): 4380 nM | IC50 (134 cancer cell lines; Homo sapiens, K562, read-out: IC50 in cell proliferation assay): 2740 nM | IC50 (134 cancer cell lines; Homo sapiens, KATO III, read-out: IC50 in cell proliferation assay): 211 nM | IC50 (134 cancer cell lines; Homo sapiens, KG-1, read-out: IC50 in cell proliferation assay): 243 nM | IC50 (134 cancer cell lines; Homo sapiens, KLE, read-out: IC50 in cell proliferation assay): 553 nM | IC50 (134 cancer cell lines; Homo sapiens, KMS-11, read-out: IC50 in cell proliferation assay): 430 nM | IC50 (134 cancer cell lines; Homo sapiens, KU812, read-out: IC50 in cell proliferation assay): 1390 nM | IC50 (134 cancer cell lines; Homo sapiens, Kasumi 1, read-out: IC50 in cell proliferation assay): 207 nM | IC50 (134 cancer cell lines; Homo sapiens, LC-2-ad, read-out: IC50 in cell proliferation assay): 334 nM | IC50 (134 cancer cell lines; Homo sapiens, LNCaP-Clone-FGC, read-out: IC50 in cell proliferation assay): 689 nM | IC50 (134 cancer cell lines; Homo sapiens, LS174T, read-out: IC50 in cell proliferation assay): 1330 nM | IC50 (134 cancer cell lines; Homo sapiens, LS-411N, read-out: IC50 in cell proliferation assay): 1760 nM | IC50 (134 cancer cell lines; Homo sapiens, LoVo, read-out: IC50 in cell proliferation assay): 2020 nM | IC50 (134 cancer cell lines; Homo sapiens, MCF7, read-out: IC50 in cell proliferation assay): 601 nM | IC50 (134 cancer cell lines; Homo sapiens, MDA-MB-231, read-out: IC50 in cell proliferation assay): 2000 nM | IC50 (134 cancer cell lines; Homo sapiens, MDA-MB-453, read-out: IC50 in cell proliferation assay): 6650 nM | IC50 (134 cancer cell lines; Homo sapiens, MDA-MB-468, read-out: IC50 in cell proliferation assay): 2010 nM | IC50 (134 cancer cell lines; Homo sapiens, MG-63, read-out: IC50 in cell proliferation assay): 1050 nM | IC50 (134 cancer cell lines; Homo sapiens, MIA PaCa-2, read-out: IC50 in cell proliferation assay): 1190 nM | IC50 (134 cancer cell lines; Homo sapiens, MKN-45, read-out: IC50 in cell proliferation assay): 2640 nM | IC50 (134 cancer cell lines; Homo sapiens, MOLM-13, read-out: IC50 in cell proliferation assay): 58 nM | IC50 (134 cancer cell lines; Homo sapiens, MOLT-4, read-out: IC50 in cell proliferation assay): 1950 nM | IC50 (134 cancer cell lines; Homo sapiens, MV4-11, read-out: IC50 in cell proliferation assay): 33 nM | IC50 (134 cancer cell lines; Homo sapiens, MeWo, read-out: IC50 in cell proliferation assay): > 10000 nM | IC50 (134 cancer cell lines; Homo sapiens, NCCIT, read-out: IC50 in cell proliferation assay): 2680 nM | IC50 (134 cancer cell lines; Homo sapiens, NCI-H82, read-out: IC50 in cell proliferation assay): 1980 nM | IC50 (134 cancer cell lines; Homo sapiens, NCI-H460, read-out: IC50 in cell proliferation assay): 1380 nM | IC50 (134 cancer cell lines; Homo sapiens, NCI-H661, read-out: IC50 in cell proliferation assay): 402 nM | IC50 (134 cancer cell lines; Homo sapiens, NCI-H716, read-out: IC50 in cell proliferation assay): 201 nM | IC50 (134 cancer cell lines; Homo sapiens, NCI-H1650, read-out: IC50 in cell proliferation assay): 673 nM | IC50 (134 cancer cell lines; Homo sapiens, NCI-H1975, read-out: IC50 in cell proliferation assay): 449 nM | IC50 (134 cancer cell lines; Homo sapiens, NCI-H2228, read-out: IC50 in cell proliferation assay): 8 nM | IC50 (134 cancer cell lines; Homo sapiens, OVCAR-3, read-out: IC50 in cell proliferation assay): 939 nM | IC50 (134 cancer cell lines; Homo sapiens, PFSK-1, read-out: IC50 in cell proliferation assay): 592 nM | IC50 (134 cancer cell lines; Homo sapiens, RL95-2, read-out: IC50 in cell proliferation assay): 652 nM | IC50 (134 cancer cell lines; Homo sapiens, RPMI-7951, read-out: IC50 in cell proliferation assay): 1280 nM | IC50 (134 cancer cell lines; Homo sapiens, RS4-11, read-out: IC50 in cell proliferation assay): 473 nM | IC50 (134 cancer cell lines; Homo sapiens, Rec1, read-out: IC50 in cell proliferation assay): 1320 nM | IC50 (134 cancer cell lines; Homo sapiens, SHP77, read-out: IC50 in cell proliferation assay): 5190 nM | IC50 (134 cancer cell lines; Homo sapiens, SK-BR-3, read-out: IC50 in cell proliferation assay): 1360 nM | IC50 (134 cancer cell lines; Homo sapiens, SK-N-AS, read-out: IC50 in cell proliferation assay): 618 nM | IC50 (134 cancer cell lines; Homo sapiens, SK-N-FI, read-out: IC50 in cell proliferation assay): 1090 nM | IC50 (134 cancer cell lines; Homo sapiens, SK-N-MC, read-out: IC50 in cell proliferation assay): 401 nM | IC50 (134 cancer cell lines; Homo sapiens, SK-N-SH, read-out: IC50 in cell proliferation assay): 367 nM | IC50 (134 cancer cell lines; Homo sapiens, SNU-5, read-out: IC50 in cell proliferation assay): 2150 nM | IC50 (134 cancer cell lines; Homo sapiens, SNU-16, read-out: IC50 in cell proliferation assay): 376 nM | IC50 (134 cancer cell lines; Homo sapiens, SNU-C2B, read-out: IC50 in cell proliferation assay): 741 nM | IC50 (134 cancer cell lines; Homo sapiens, SU-DHL-1, read-out: IC50 in cell proliferation assay): 35 nM | IC50 (134 cancer cell lines; Homo sapiens, SU-DHL-6, read-out: IC50 in cell proliferation assay): 1340 nM | IC50 (134 cancer cell lines; Homo sapiens, SUP-T1, read-out: IC50 in cell proliferation assay): 1480 nM | IC50 (134 cancer cell lines; Homo sapiens, SW48, read-out: IC50 in cell proliferation assay): 713 nM | IC50 (134 cancer cell lines; Homo sapiens, SW480, read-out: IC50 in cell proliferation assay): 1090 nM | IC50 (134 cancer cell lines; Homo sapiens, SW626, read-out: IC50 in cell proliferation assay): 1300 nM | IC50 (134 cancer cell lines; Homo sapiens, SW780, read-out: IC50 in cell proliferation assay): 317 nM | IC50 (134 cancer cell lines; Homo sapiens, SW837, read-out: IC50 in cell proliferation assay): 663 nM | IC50 (134 cancer cell lines; Homo sapiens, SW872, read-out: IC50 in cell proliferation assay): 780 nM | IC50 (134 cancer cell lines; Homo sapiens, SW900, read-out: IC50 in cell proliferation assay): 537 nM | IC50 (134 cancer cell lines; Homo sapiens, SW948, read-out: IC50 in cell proliferation assay): 1440 nM | IC50 (134 cancer cell lines; Homo sapiens, SW982, read-out: IC50 in cell proliferation assay): 490 nM | IC50 (134 cancer cell lines; Homo sapiens, SW-620, read-out: IC50 in cell proliferation assay): 980 nM | IC50 (134 cancer cell lines; Homo sapiens, T98G, read-out: IC50 in cell proliferation assay): 1340 nM | IC50 (134 cancer cell lines; Homo sapiens, TCC-SUP, read-out: IC50 in cell proliferation assay): 1420 nM | IC50 (134 cancer cell lines; Homo sapiens, THP-1, read-out: IC50 in cell proliferation assay): 6380 nM | IC50 (134 cancer cell lines; Homo sapiens, U2OS, read-out: IC50 in cell proliferation assay): 1240 nM | IC50 (134 cancer cell lines; Homo sapiens, U-87 MG, read-out: IC50 in cell proliferation assay): 8530 nM | IC50 (134 cancer cell lines; Homo sapiens, U-118-MG, read-out: IC50 in cell proliferation assay): 1880 nM | IC50 (134 cancer cell lines; Homo sapiens, UMUC3, read-out: IC50 in cell proliferation assay): 1320 nM | IC50 (134 cancer cell lines; Hs766T, read-out: IC50 in cell proliferation assay): 2540 nM | IC50 (134 cancer cell lines; L-82, read-out: IC50 in cell proliferation assay): 6.37 nM | IC50 (134 cancer cell lines; Rh30, read-out: IC50 in cell proliferation assay): 464 nM | IC50 (AP-1060 (ETV6-NTRK3)): 2400 nM
